Consider ten molecules from paper PMC3755381 (Australian journal of chemistry, 2012).

As usually defined, the IC50 is the point on the concentration scale where inhibition reaches its midpoint.

Holding throughout (type): biochemical
The target of one experiment is PI3Kα (Homo sapiens, UniProt P42336). Description: PI3Kα inhibition.
Another experiment has as its target PI3Kβ (Homo sapiens, UniProt P42338). Description: PI3Kβ inhibition.
A further experiment has as its target PI3Kγ (Homo sapiens, UniProt P48736). Description: PI3Kγ inhibition.
The target in another experiment is PI3Kδ (Homo sapiens, UniProt O00329). The experiment in a line: PI3Kδ inhibition.
The next experiment addresses PDE2 (Homo sapiens, UniProt O00408). The experiment in a line: PDE2 inhibition.
Another experiment deals with PDE4. Description: PDE4 inhibition. The note with it: for IC50: read-out: PDE4 inhibition IC50.
The subject of a further experiment is class I PI3K isoforms. Description: Inhibition of PI3K isoforms. Particulars: for inhibition of PI3K: same compounds synthesized by compound 5 as key intermediate (no contaminant).

PI3Kγ, sequence (P48736 whole entry, species assumed): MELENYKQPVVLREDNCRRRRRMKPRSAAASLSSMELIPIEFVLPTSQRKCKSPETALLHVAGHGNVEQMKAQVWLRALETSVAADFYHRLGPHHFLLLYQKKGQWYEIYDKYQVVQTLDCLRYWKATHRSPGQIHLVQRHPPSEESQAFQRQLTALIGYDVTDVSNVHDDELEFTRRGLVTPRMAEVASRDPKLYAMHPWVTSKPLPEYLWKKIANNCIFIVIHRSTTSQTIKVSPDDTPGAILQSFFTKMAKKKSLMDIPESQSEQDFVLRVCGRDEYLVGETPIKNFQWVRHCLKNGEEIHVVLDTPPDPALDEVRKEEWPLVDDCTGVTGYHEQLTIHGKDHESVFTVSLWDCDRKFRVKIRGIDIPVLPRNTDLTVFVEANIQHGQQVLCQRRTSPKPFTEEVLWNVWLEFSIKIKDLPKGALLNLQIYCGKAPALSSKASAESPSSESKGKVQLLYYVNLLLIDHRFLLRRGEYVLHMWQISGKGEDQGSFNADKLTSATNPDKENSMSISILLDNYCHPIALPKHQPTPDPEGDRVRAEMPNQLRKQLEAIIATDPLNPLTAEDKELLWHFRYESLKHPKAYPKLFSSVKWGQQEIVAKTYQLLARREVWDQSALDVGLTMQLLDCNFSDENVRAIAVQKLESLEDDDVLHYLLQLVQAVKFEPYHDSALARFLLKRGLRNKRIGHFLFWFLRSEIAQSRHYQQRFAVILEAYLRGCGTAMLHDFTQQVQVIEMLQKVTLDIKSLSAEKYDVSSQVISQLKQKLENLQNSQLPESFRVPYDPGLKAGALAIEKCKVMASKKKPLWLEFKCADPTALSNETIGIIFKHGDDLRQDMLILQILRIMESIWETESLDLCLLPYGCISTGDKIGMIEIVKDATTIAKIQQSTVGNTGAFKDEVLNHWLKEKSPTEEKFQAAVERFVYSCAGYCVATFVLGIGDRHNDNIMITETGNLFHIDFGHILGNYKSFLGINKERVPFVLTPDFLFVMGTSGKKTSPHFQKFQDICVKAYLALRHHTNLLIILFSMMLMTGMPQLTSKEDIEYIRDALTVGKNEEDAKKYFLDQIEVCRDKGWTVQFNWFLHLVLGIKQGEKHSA
PI3Kδ, sequence (O00329 whole entry, species assumed): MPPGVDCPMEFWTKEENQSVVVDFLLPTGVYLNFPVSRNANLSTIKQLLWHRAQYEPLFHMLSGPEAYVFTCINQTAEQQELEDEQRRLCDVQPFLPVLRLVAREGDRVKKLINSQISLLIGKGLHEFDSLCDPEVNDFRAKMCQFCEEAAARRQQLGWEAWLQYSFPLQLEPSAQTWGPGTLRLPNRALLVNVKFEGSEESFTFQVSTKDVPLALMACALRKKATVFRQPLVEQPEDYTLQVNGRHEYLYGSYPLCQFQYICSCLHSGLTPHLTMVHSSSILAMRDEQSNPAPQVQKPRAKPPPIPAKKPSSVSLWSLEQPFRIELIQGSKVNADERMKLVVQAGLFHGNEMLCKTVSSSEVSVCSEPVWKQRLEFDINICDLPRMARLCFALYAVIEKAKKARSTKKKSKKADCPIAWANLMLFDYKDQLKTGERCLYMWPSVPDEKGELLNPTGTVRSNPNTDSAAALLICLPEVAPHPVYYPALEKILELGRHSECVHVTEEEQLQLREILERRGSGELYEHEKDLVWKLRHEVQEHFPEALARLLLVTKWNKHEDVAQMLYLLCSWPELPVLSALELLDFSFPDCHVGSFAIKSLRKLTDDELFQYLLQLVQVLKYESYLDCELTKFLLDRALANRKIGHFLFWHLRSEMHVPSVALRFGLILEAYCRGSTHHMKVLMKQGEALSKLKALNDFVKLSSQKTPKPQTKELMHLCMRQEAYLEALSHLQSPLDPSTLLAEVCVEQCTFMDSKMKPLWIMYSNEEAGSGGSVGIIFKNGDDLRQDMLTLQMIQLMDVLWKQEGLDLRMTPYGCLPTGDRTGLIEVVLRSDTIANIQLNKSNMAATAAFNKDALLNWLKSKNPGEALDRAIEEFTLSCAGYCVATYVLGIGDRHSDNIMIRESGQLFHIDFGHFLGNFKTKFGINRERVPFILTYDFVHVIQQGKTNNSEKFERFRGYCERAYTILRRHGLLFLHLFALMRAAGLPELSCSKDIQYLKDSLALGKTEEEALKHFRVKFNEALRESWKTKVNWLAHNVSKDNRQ
PI3Kδ, sequence (P27986 whole entry partner, species assumed): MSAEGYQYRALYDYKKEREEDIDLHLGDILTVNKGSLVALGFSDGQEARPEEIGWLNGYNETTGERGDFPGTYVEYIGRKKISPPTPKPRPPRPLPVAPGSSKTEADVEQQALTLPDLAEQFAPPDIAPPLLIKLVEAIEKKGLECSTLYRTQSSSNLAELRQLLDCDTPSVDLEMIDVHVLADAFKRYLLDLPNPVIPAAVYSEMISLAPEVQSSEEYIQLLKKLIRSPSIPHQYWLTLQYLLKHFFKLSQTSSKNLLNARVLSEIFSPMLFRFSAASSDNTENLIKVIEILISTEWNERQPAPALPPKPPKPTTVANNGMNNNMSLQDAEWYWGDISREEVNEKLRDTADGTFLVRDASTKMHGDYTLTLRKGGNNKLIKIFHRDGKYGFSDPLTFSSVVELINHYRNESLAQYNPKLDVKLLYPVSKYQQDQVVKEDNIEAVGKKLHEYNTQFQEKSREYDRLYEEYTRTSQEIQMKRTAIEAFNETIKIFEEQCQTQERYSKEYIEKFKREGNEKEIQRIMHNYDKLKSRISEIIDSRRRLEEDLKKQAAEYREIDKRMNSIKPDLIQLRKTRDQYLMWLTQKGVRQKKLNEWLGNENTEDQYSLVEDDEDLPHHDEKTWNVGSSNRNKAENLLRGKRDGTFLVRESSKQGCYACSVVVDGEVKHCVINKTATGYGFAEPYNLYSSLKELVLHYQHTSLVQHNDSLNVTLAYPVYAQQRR
PI3Kα, sequence (P42336 whole entry, species assumed): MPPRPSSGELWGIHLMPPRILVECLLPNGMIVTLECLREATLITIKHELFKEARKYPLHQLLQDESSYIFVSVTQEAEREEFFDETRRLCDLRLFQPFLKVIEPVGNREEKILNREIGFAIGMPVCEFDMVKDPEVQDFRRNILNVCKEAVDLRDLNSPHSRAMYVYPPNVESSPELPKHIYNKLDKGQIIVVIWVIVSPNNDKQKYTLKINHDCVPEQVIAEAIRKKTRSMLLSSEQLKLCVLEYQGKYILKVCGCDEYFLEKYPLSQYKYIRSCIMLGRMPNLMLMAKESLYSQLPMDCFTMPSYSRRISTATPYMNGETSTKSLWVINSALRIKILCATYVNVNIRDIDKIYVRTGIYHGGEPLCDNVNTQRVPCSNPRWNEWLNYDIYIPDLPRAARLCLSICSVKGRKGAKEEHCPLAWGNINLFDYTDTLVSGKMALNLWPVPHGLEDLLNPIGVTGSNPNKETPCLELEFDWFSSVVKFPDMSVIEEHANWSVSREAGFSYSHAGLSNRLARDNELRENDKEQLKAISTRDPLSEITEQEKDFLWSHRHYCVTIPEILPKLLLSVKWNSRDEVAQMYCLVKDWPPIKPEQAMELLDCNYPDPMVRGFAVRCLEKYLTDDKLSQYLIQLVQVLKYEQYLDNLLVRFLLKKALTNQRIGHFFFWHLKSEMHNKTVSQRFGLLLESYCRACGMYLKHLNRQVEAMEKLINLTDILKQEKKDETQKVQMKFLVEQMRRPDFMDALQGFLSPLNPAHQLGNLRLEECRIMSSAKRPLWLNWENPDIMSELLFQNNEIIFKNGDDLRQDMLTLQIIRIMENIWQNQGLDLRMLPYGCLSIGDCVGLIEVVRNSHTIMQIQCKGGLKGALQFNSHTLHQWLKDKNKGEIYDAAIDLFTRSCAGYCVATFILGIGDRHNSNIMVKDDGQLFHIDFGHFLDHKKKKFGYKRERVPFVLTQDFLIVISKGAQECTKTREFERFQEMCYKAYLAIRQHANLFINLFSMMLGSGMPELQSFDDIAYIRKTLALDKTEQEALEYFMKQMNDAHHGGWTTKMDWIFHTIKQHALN
PI3Kα, sequence (P27986 whole entry partner, species assumed): as the sequence (P27986 whole entry partner, species assumed) above
PI3Kβ, sequence (P42338 whole entry, species assumed): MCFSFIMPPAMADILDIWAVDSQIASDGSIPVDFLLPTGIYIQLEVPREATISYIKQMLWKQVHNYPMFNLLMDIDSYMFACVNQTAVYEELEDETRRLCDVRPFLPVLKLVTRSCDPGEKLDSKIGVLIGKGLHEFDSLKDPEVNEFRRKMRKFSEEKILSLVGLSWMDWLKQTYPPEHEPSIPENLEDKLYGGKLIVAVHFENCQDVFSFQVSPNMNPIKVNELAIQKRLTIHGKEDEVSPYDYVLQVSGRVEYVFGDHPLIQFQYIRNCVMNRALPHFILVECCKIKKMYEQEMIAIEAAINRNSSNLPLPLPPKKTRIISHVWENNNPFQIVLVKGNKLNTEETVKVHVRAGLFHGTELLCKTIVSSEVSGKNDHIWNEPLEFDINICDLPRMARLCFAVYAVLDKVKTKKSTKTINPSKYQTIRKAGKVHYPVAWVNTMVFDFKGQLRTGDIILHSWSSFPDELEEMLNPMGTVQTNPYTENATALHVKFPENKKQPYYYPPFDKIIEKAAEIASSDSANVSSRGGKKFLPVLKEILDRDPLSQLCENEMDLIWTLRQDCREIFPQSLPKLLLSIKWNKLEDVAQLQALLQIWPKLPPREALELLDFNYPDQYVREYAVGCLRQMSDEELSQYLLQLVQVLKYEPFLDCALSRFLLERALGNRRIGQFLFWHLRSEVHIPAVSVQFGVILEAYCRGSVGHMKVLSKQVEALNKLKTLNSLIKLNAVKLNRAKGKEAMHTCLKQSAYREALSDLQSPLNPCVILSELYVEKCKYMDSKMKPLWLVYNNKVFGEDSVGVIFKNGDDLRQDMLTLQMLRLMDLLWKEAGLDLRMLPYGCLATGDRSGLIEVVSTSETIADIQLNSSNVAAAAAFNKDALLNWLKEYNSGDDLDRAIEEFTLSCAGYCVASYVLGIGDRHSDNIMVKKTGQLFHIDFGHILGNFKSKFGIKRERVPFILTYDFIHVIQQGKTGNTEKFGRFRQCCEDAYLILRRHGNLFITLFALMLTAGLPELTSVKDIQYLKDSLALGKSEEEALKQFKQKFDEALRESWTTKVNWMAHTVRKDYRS
PI3Kβ, sequence (P27986 whole entry partner, species assumed): as the sequence (P27986 whole entry partner, species assumed) above

For `CSC1=NC(=O)S/C1=C\c1ccc2c(c1)OCO2` [Compound 5, (Z)-5-(Benzo[d][1,3]dioxol-5-ylmethylene)-4-(methylthio)thiazol-2(5H)-one], the concentration for half-maximal inhibition (IC50) was 0.056 µM at PI3Kα, over 1 µM on PI3Kβ, 0.06 µM against PI3Kγ and 0.038 µM against PI3Kδ.

As to `O=C1NC(=S)/C(=C/c2ccc3c(c2)OCO3)S1` [Compound 4, (Z)-5-(Benzo[d][1,3]dioxol-5-ylmethylene)-4-thioxothiazolidin-2-one], the IC50 worked out at 0.15 µM against PI3Kβ, 0.12 µM at PI3Kγ and 0.76 µM against PI3Kδ.

For `CC(O)C/N=C1\NC(=O)S\C1=C/c1ccc2c(c1)OCO2` (stereo not shown) [Compound 7z, (4Z,5Z)-5-(Benzo[d][1,3]dioxol-5-ylmethylene)-4-((2-hydroxypropyl)imino)thiazolidin-2-one], the concentration for half-maximal inhibition (IC50) on PI3Kα is over 100 µM; against PI3Kβ, over 100 µM; against PI3Kγ it was over 100 µM; against PI3Kδ, over 100 µM; against PDE2, over 10 µM; with PDE4 it was over 10 µM. Also, on PDE2, the “activity against PDE2 (in words)” value is “virtually inactive”. The “activity against PDE4 (in words)” value with PDE4 was “virtually inactive”.

For the molecule `COc1ccc(C/N=C2\NC(=O)S\C2=C/c2ccc3c(c2)OCO3)cc1OC` [Compound 7p, (4Z,5Z)-5-(Benzo[d][1,3]dioxol-5-ylmethylene)-4-((3,4-dimethoxybenzyl)imino)thiazolidin-2-one], the concentration for half-maximal inhibition (IC50) at PI3Kα was over 100 µM; on PI3Kβ, over 100 µM; against PI3Kγ it was over 100 µM; against PI3Kδ it was over 100 µM; at PDE2, 4.7 µM; in the experiment on PDE4 it was 5.1 µM. For the same molecule, the “inhibition of PI3K isoforms (in words)” value in the experiment with class I PI3K isoforms is on record as “no inhibition”.

Take `C[C@H](/N=C1\NC(=O)S\C1=C/c1ccc2c(c1)OCO2)C(=O)O` [Compound 7aa, (S)-2-((Z)-((Z)-5-(Benzo[d][1,3]dioxol-5-ylmethylene)-2-oxothiazolidin-4-ylidene)amino)propanoic Acid]: the IC50 was determined as 19 µM against PI3Kα, 94 µM against PI3Kβ, 14.5 µM on PI3Kγ and 62 µM at PI3Kδ.

On to `C/N=C1\NC(=O)S\C1=C/c1ccc2c(c1)OCO2` [Compound 7x, (4Z,5Z)-5-(Benzo[d][1,3]dioxol-5-ylmethylene)-4-(methylimino)thiazolidin-2-one], for which the IC50 at PI3Kα was 90 µM; on PI3Kβ, over 100 µM; against PI3Kγ, over 100 µM; against PI3Kδ it was over 100 µM; against PDE2 it was over 10 µM; with PDE4, over 10 µM. Moreover, the “activity against PDE2 (in words)” value at PDE2 was “virtually inactive”. In addition, the “activity against PDE4 (in words)” value in the experiment on PDE4 is “virtually inactive”.

Regarding `O=C1NC(=N\C2CCCC2)/C(=C/c2ccc3c(c2)OCO3)S1` [Compound 7f, (4Z,5Z)-5-(Benzo[d][1,3]dioxol-5-ylmethylene)-4-(cyclopentylimino)thiazolidin-2-one], the “inhibition of PI3K” value in the experiment on class I PI3K isoforms is listed as “no inhibition”.

As to `O=C1NC(=O)/C(=C/c2ccc3c(c2)OCO3)S1` [Compound 2, (Z)-5-(Benzo[d][1,3]dioxol-5-ylmethylene) thiazolidine-2,4-dione, reference compound], the results for the 50% inhibitory concentration (IC50) on PI3Kβ and against PI3Kγ were 0.6 µM and 0.04 µM, respectively. Also, the “inhibition of PI3K isoforms (in words)” value with class I PI3K isoforms is given as “potent inhibitor”.

Take `O=C1NC(=N\CCc2ccc(O)cc2)/C(=C/c2ccc3c(c2)OCO3)S1` [Compound 7e, (4Z,5Z)-5-(Benzo[d][1,3]dioxol-5-ylmethylene)-4-((4-hydroxyphenethyl)imino)thiazolidin-2-one]: in the experiment with class I PI3K isoforms, the “inhibition of PI3K” value is recorded as “no inhibition”.

For the molecule `O=C1NC(=N\[C@@H](Cc2c[nH]c3ccccc23)C(=O)O)/C(=C/c2ccc3c(c2)OCO3)S1` [Compound 7ab], the IC50 is 26 µM against PI3Kα, 80 µM against PI3Kβ, 11 µM on PI3Kγ and 43 µM against PI3Kδ.
